Experimental data reported in ChEMBL document CHEMBL1201862, “PubChem BioAssay data set” (2004).
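Five concentrations, 48 hours, 96-well plates. The concentration for 50% growth inhibition is given as GI50.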 Active and inactive are the calls of the source. Cut-off read from the data, not from the text of the source: active = GI50 up to about 1.1 µM and inactive = higher.

Columns and labels:
Assay in all cases: NCI-60 cell line screen, 48 h
MDA-MB-435 = tested on: MDA-MB-435
CAKI-1 = tested on: CAKI-1
UACC-62 = tested on: UACC-62
A498 = tested on: A498
HOP-62 = tested on: HOP-62
786-0 = tested on: 786-0
MCF7 = tested on: MCF7
COLO 205 = tested on: COLO 205
NCI-H23 = tested on: NCI-H23
SF-295 = tested on: SF-295
SF-539 = tested on: SF-539
SK-MEL-28 = tested on: SK-MEL-28
HOP-92 = tested on: HOP-92
OVCAR-5 = tested on: OVCAR-5
MDA-MB-231 = tested on: MDA-MB-231
NCI/ADR-RES = tested on: NCI/ADR-RES
SR = tested on: SR
K562 = tested on: K562
SF-268 = tested on: SF-268
CCRF-CEM = tested on: CCRF-CEM

Measured: GI50

O=S(=O)(c1ccccc1)N1CN2CN(C1)CN(S(=O)(=O)c1ccccc1)C2
inactive: MDA-MB-435 > 100 µM | CAKI-1 > 100 µM | UACC-62 > 100 µM | A498 > 100 µM | HOP-62 > 100 µM | 786-0 > 100 µM | MCF7 > 100 µM | COLO 205 > 100 µM | NCI-H23 > 100 µM | SF-295 > 100 µM | SF-539 > 100 µM | SK-MEL-28 > 100 µM | HOP-92 > 100 µM | OVCAR-5 > 100 µM | MDA-MB-231 > 100 µM | NCI/ADR-RES > 100 µM | SR > 100 µM | K562 > 100 µM

COc1cc(/C=N/c2nc3cc4sc(/N=C/c5cc(OC)c(OC)c(OC)c5)nc4cc3s2)cc(OC)c1OC
inactive: SF-268 89.1 µM | MDA-MB-435 39.1 µM | CAKI-1 > 100 µM | UACC-62 67.1 µM | A498 > 100 µM | HOP-62 57.1 µM | 786-0 49.2 µM | MCF7 53.8 µM | COLO 205 28.4 µM | NCI-H23 56.1 µM | SF-295 56.8 µM | SF-539 17.9 µM | SK-MEL-28 21.7 µM | HOP-92 > 100 µM | OVCAR-5 > 100 µM | MDA-MB-231 79.4 µM | NCI/ADR-RES 34.1 µM | SR 21.7 µM | K562 50.1 µM

Cc1cc2c(cc1-c1cc3c(cc1C)C(C(C)C)=C(O)C(=O)/C3=C\Nc1c3ccccc3nc3ccccc13)/C(=C/Nc1c3ccccc3nc3ccccc13)C(=O)C(O)=C2C(C)C
inactive: SF-268 3.36 µM | MDA-MB-435 4.6 µM | CAKI-1 3.03 µM | UACC-62 3.66 µM | A498 7.03 µM | HOP-62 4.26 µM | 786-0 2.72 µM | MCF7 3.17 µM | COLO 205 1.99 µM | CCRF-CEM 3.51 µM | NCI-H23 3.66 µM | SF-295 2.31 µM | SF-539 3.86 µM | SK-MEL-28 7.03 µM | HOP-92 5.73 µM | OVCAR-5 4.4 µM | MDA-MB-231 4.55 µM | NCI/ADR-RES 2.59 µM | SR 3.91 µM

C[C@@]1(c2ccccc2)O[C@@H]2C[C@H]3[C@@H]4CCC5=CC(=O)C=C[C@]5(C)[C@@]4(F)[C@@H](O)C[C@]3(C)[C@]2(C(=O)CO)O1 [AMCINAFIDE]
inactive: SF-268 15.1 µM | MDA-MB-435 18.7 µM | CAKI-1 23.3 µM | UACC-62 16.7 µM | A498 18 µM | HOP-62 15.6 µM | 786-0 16.3 µM | MCF7 13.9 µM | COLO 205 14.4 µM | NCI-H23 18.1 µM | SF-295 16.7 µM | SK-MEL-28 16.3 µM | HOP-92 22.3 µM | OVCAR-5 15.6 µM | MDA-MB-231 11.1 µM | NCI/ADR-RES 15 µM | SR 19.3 µM | K562 12.5 µM

COc1cc(OC2OC(COC(=O)c3cc(O)c(O)c(O)c3)C(O)C(O)C2O)ccc1O (configuration not stated)
inactive: SF-268 82 µM | MDA-MB-435 24.4 µM | CAKI-1 69.2 µM | A498 > 100 µM | HOP-62 > 100 µM | 786-0 > 100 µM | MCF7 53.8 µM | COLO 205 > 100 µM | CCRF-CEM 42.2 µM | NCI-H23 > 100 µM | SF-295 78.7 µM | SF-539 > 100 µM | SK-MEL-28 > 100 µM | HOP-92 32.7 µM | OVCAR-5 > 100 µM | MDA-MB-231 34.5 µM | NCI/ADR-RES > 100 µM | SR > 100 µM | K562 32.7 µM

O=C(c1ccccc1)c1ccc2[nH]c(-c3c(Cl)c(Cl)c(Cl)c(Cl)c3-c3nnc(-c4ccccc4)o3)nc2c1
inactive: SF-268 31.4 µM | MDA-MB-435 3.51 µM | CAKI-1 40.4 µM | A498 12.1 µM | HOP-62 25.8 µM | 786-0 36.6 µM | MCF7 9.79 µM | COLO 205 18.3 µM | CCRF-CEM 46.3 µM | NCI-H23 31.7 µM | SF-295 14.1 µM | SF-539 19.4 µM | SK-MEL-28 > 100 µM | HOP-92 35.7 µM | OVCAR-5 67.5 µM | MDA-MB-231 25.4 µM | NCI/ADR-RES 13.2 µM | SR 4.06 µM | K562 4.67 µM

CC(=O)Nc1ccc(C(O)/C(=N/N)c2nc3ccc(Cl)cc3nc2O)cc1 (configuration not stated)
inactive: SF-268 > 100 µM | MDA-MB-435 > 100 µM | CAKI-1 > 100 µM | UACC-62 > 100 µM | A498 > 100 µM | HOP-62 > 100 µM | 786-0 > 100 µM | MCF7 > 100 µM | COLO 205 > 100 µM | CCRF-CEM > 100 µM | NCI-H23 > 100 µM | SF-295 > 100 µM | SF-539 > 100 µM | SK-MEL-28 > 100 µM | HOP-92 > 100 µM | OVCAR-5 > 100 µM | MDA-MB-231 > 100 µM | NCI/ADR-RES > 100 µM | SR > 100 µM

CC(C)NCC(O)c1ccc(O)c2ncccc12 (configuration not stated)
inactive: SF-268 35.3 µM | MDA-MB-435 > 100 µM | CAKI-1 64.9 µM | UACC-62 60 µM | A498 > 100 µM | HOP-62 35.5 µM | 786-0 45.5 µM | MCF7 7.28 µM | COLO 205 18.7 µM | NCI-H23 11 µM | SF-295 30.9 µM | SF-539 43 µM | SK-MEL-28 > 100 µM | HOP-92 > 100 µM | OVCAR-5 > 100 µM | MDA-MB-231 27 µM | NCI/ADR-RES 27.7 µM | SR 25.4 µM | K562 19.5 µM

CCOC(=O)c1cc(C2=C(S)N(CC(C)CC)CC2)c(C(=O)CC)[nH]1 (configuration not stated)
inactive: SF-268 21.9 µM | MDA-MB-435 15.5 µM | CAKI-1 12.9 µM | UACC-62 16.6 µM | A498 15.6 µM | 786-0 16.9 µM | MCF7 21.3 µM | COLO 205 11 µM | CCRF-CEM 4.28 µM | NCI-H23 19.5 µM | SF-295 18.2 µM | SF-539 12 µM | SK-MEL-28 19.5 µM | HOP-92 19.7 µM | MDA-MB-231 15.6 µM | NCI/ADR-RES 29.5 µM | SR 5.96 µM | K562 10 µM

O=C(C(Cl)=C(N1CCCCC1)N1CCCCC1)C(Cl)Cl
inactive: SF-268 > 100 µM | MDA-MB-435 > 100 µM | CAKI-1 21.4 µM | UACC-62 > 100 µM | A498 > 100 µM | HOP-62 > 100 µM | 786-0 > 100 µM | MCF7 > 100 µM | COLO 205 > 100 µM | CCRF-CEM > 100 µM | NCI-H23 > 100 µM | SF-295 > 100 µM | SF-539 > 100 µM | SK-MEL-28 > 100 µM | HOP-92 > 100 µM | MDA-MB-231 > 100 µM | NCI/ADR-RES > 100 µM | SR > 100 µM | K562 > 100 µM
